“Also recorded” adds a separate entry of the source. Read-outs that look alike come from different tables or passages of the source.

Data on 14 molecules can be found in article PMC11596599, “Structure Characterization of Four New Sesquiterpene Pyridine Alkaloids from Tripterygium wilfordii Hook. f. and Anti-Inflammatory Activity Evaluations” (Molecules, 2024).

In one data set the test system is nitric oxide generation. Particulars: cited from earlier work; for suppressed nitric oxide generation: LPS induced RAW264.7 cells, concentration of 5 μM ref 23; for IC50: LPS induced RAW264.7 cells ref 24, read-out: IC50 (nitric oxide inhibitory effects).
For data set [1], the system named is NF-κB pathway. In words: NF-κB luciferase reporter assay in LPS-induced HEK293/NF-κB-Luc cells. The conditions noted are these: for inhibition at 100 µM / IC50: Homo sapiens; for inhibition at 100 µM: HEK293, 24 h, read-out: NF-κB Inhibitory Rates (%) (n = 3); for IC50: read-out: IC50 (NF-κB inhibition). In kind it is cell-based. The protocol:
Anti-inflammation bioassays were carried out using the HEK293/NF-κB-Luc cells, which were produced as the described procedure. The HEK293/NF-κB-Luc cells were inoculated into 48-well plates and cultured in DMEM supplemented with 10% fetal bovine serum (FBS) for 16 h. Following treatment with the tested compounds, the cells were simulated with 1 μg/mL of LPS for a duration of 24 h. Then, the cells were rinsed twice with phosphate-buffered saline (PBS, pH 7.4) prior to lysing with passive lysis buffer. Then, the inhibitory effects on NF-κB were analyzed using the luciferase assay system according to the manufacturer’s instructions. All the experiments were performed in triplicate.

A short description of data set [2]: Cell viability by CCK-8 method. The format is cell-based. The conditions noted are these: human; HEK293 cells, CCK-8, compounds at 100 μM, 48 h; read-out: Cell Viability (%) (n = 3). The protocol:
(§1) The effect of the test compounds on the viability of HEK293 cells was determined by the CCK-8 method. Briefly, HEK293 cells were inoculated into 96-well plates with 5 × 10^3 cells per well and incubated at 37 °C with 5% CO2 for 24 h. The cells were treated with test compounds and incubated for 48 h; then, 20 μL of the CCK-8 reagent was added into each well and incubated for another 2 h. The absorbance at 450 nm was measured with a microplate reader to further calculate the cell viability. All experiments were performed in triplicate.

In data set [3] the test system is NF-κB pathway. On the set-up: method as in PMID 36364101. Particulars: LPS-induced HEK293/NF-κB-Luc cells; previous study ref 26; read-out: IC50 (inhibitory activity on the NF-κB pathway); cited from earlier work.
The test system of a further data set is HEK293 cells. The data set is described as follows: Cell viability by CCK-8 method. In kind it is cell-based. Particulars: concentration of 100 μM. As for the experimental part: as §1
In data set [4] the test system is cytokines (TNF-α, IL-1β, IL-8, IL-2, IL-4, and IFN-γ). The arrangement: method as in PMID 11374948. Particulars: 10 μg/mL, IL-8, IL-2, IL-4, IFN-γ, inhibitory rates reaching 100% in some cases ref 25; cited from earlier work.
The mark [5] stands for this setting: compounds at 100 μM, 1 μg/mL LPS 24 h.

Turning to `CC(=O)OC[C@]12[C@H](OC(C)=O)[C@H](OC(C)=O)[C@@H]3[C@@H](OC(C)=O)[C@@]14O[C@@]3(C)COC(=O)c1cccnc1CCC(C)C(=O)O[C@@H]([C@H](OC(C)=O)[C@@H]2OC(C)=O)[C@]4(C)O` (stereo partly shown) [euonine], the “suppressed nitric oxide generation” value in the data set on nitric oxide generation is on record as 54.7%. Take `CC(=O)OCC12C(OC(C)=O)C(OC(C)=O)C3C(OC(C)=O)C14OC3(C)COC(=O)c1cnccc1C(C)C(C)(O)C(=O)OC(C(OC(C)=O)C2OC(C)=O)C4(C)O` (stereo not shown) [Compound 7, wilfordinine B]: the inhibition at 100 µM with NF-κB pathway [1] (setting [5]) amounted to 32.1 ± 5.7%. In addition, in data set [2], the viability at 48 h, 100 µM stood at 95 ± 36.2%. As to wilfordatine E, the IC50 in the data set on NF-κB pathway [3] is 8.75 µM. For the molecule `CC(=O)OC[C@]12[C@H](OC(C)=O)[C@H](OC(C)=O)[C@@H]3[C@@H](OC(C)=O)[C@@]14O[C@@]3(C)COC(=O)c1cnccc1C(C)C(C)C(=O)O[C@@H]([C@H](O)[C@@H]2OC(C)=O)[C@]4(C)O` (stereo partly shown) [Compound 6, wilfordinine A], the inhibition at 100 µM in the data set with NF-κB pathway [1] (setting [5]) was over 45%. For the same molecule, the IC50 in the data set on NF-κB pathway [1] was 9.05 µM. For the same molecule, the viability at 48 h, 100 µM in data set [2] came out at 92.4 ± 7.62%. In addition, in the data set on HEK293 cells, the “influence on cell viability (in words)” value is listed as “no influence on the cell viability; also recorded: no cytotoxicity”. Besides, the “suppressed nitric oxide generation” value with nitric oxide generation is listed as 59.0%.

Regarding `Cc1ccc(NCCCc2ccccc2)c(N)c1` [JSH23, reference compound], the “NF-κB Inhibitory Rates (%) (n = 3)” value in the data set with NF-κB pathway [1] (setting [5]) came to 74.56 ± 1.83%.

Regarding `CC(=O)OCC12C(OC(C)=O)C(OC(C)=O)C3C(OC(C)=O)C14OC3(C)COC(=O)c1cnccc1C(C)C(C)C(=O)OC(C(OC(C)=O)C2OC(C)=O)C4(C)O` (stereo not shown) [Compound 8, peritassine A], in the data set with NF-κB pathway [1] (setting [5]), the inhibition at 100 µM came to 19.1 ± 3.2%. Moreover, the viability at 48 h, 100 µM in data set [2] was 93.9 ± 6.1%. In addition, the “suppressed nitric oxide generation” value with nitric oxide generation is 8.2%. Take `CC(=O)OCC12C(OC(C)=O)C(=O)C3C(OC(C)=O)C14OC3(C)COC(=O)c1cccnc1CCC(C)(OC(=O)c1ccoc1)C(=O)OC(C(O)C2OC(C)=O)C4(C)O` (stereo not shown) [tripterygiumine S]: the IC50 with nitric oxide generation is 23.8 ± 4.38 µM. For the molecule `CC(=O)OCC12C(OC(C)=O)C(O)C3OC(=O)C(C)C(C)c4ccncc4C(=O)OCC4(C)OC1(C(O)C4C(OC(C)=O)C2OC(C)=O)C3(C)O` (stereo not drawn) [Compound 4, 1β,7β,8β,11-tetraacetoxy-1β,4α,5α-trihydroxy-3α,15-[2′,3′-dimethyl-3′-(3″-carboxy-4″-pyridyl)propanic acid] dicarbolactone dihydro-β-agarofuran], the inhibition at 100 µM in the data set on NF-κB pathway [1] (setting [5]) was over 45%. Besides, in the data set with NF-κB pathway [1], the IC50 was found to be 1.64 µM. In data set [2], the viability at 48 h, 100 µM turned out to be 100 ± 2.55%. In addition, in the data set on HEK293 cells, the “influence on cell viability (in words)” value is given as “no influence on the cell viability; also recorded: no cytotoxicity”.

In the case of `CC(=O)OC[C@]12[C@H](OC(C)=O)[C@H](OC(C)=O)[C@@H]3[C@@H](OC(C)=O)[C@@]14O[C@@]3(C)COC(=O)c1cccnc1CCC(C)C(=O)O[C@@H]([C@H](OC(=O)c1ccccc1)[C@@H]2OC(C)=O)[C@]4(C)O` (stereo partly shown) [wilforine], the concentration for half-maximal inhibition (IC50) with NF-κB pathway [3] was 15.7 µM. On to `CC(=O)OCC12C(OC(C)=O)C(OC(C)=O)C3C(OC(C)=O)C14OC3(C)COC(=O)c1cnccc1CCC(C)(O)C(=O)OC(C(OC(=O)c1ccco1)C2OC(C)=O)C4(C)O` (stereo not shown) [Compound 2, wilfordinine H], for which, in the data set on NF-κB pathway [1] (setting [5]), the inhibition at 100 µM worked out at 33.9 ± 2.06%. Further, the viability at 48 h, 100 µM in data set [2] was 94.2 ± 5.75%.

Take `CC(=O)OC[C@]12[C@H](OC(C)=O)C(=O)[C@@H]3[C@@H](OC(C)=O)[C@@]14O[C@@]3(C)COC(=O)c1cccnc1CCC(C)(OC(C)=O)C(=O)O[C@@H]([C@H](OC(=O)c1ccoc1)[C@@H]2OC(C)=O)[C@]4(C)O` (stereo partly shown) [9′-O-acetyl-7-deacetoxy-7-oxowilfortrine]: the IC50 with nitric oxide generation is 2.59 ± 3.59 µM. Take `CC(=O)OC[C@]12[C@H](OC(C)=O)[C@H](OC(C)=O)[C@@H]3[C@@H](OC(C)=O)[C@@]14O[C@@]3(C)COC(=O)c1cccnc1CCC(C)(O)C(=O)O[C@@H]([C@H](O)[C@@H]2OC(C)=O)[C@@]4(C)O` (stereo partly shown) [tripfordine A]: the IC50 in the data set on NF-κB pathway [3] is 0.74 µM.

`CC(=O)OC[C@]12[C@H](OC(C)=O)[C@H](OC(C)=O)[C@@H]3[C@@H](OC(=O)c4ccccc4)[C@@]14O[C@@]3(C)COC(=O)c1cccnc1C(C)C(C)C(=O)O[C@@H]([C@H](OC(C)=O)[C@@H]2OC(C)=O)[C@]4(C)O` (stereo partly shown) [congorinine E-1]: the “inhibitory effects on the production of cytokines (in words)” value in data set [4] was “significant inhibitory effects”. Turning to `CC(=O)OC[C@]12[C@H](OC(C)=O)[C@H](OC(C)=O)[C@@H]3[C@@H](OC(=O)c4ccccc4)[C@@]14O[C@@]3(C)COC(=O)c1cccnc1C(C)C(C)C(=O)O[C@@H]([C@H](OC(C)=O)[C@@H]2OC(=O)c1ccccc1)[C@]4(C)O` (stereo partly shown) [ebenifoline E-11], in data set [4], the “inhibitory effects on the production of cytokines (in words)” value was “significant inhibitory effects”.
